{
  "source": "paper PMC10147923",
  "about": "“Pain-causing stinging nettle toxins target TMEM233 to modulate NaV1.7 function” (Nature Communications, 2023)",
  "key": {"NaV1.9": {"test_system": "NaV1.9", "assay_type": "cell-based, mouse"}, "hNaV1.1": {"test_system": "hNaV1.1", "assay": "Persistent current, HEK293-hNaV1.1/β1", "assay_type": "cell-based, human", "settings": "ExTxA 1 µM; individual cells"}, "hNaV1.7": {"test_system": "hNaV1.7", "assay": "Persistent current, Xenopus oocytes expressing hNaV1.7 (two-electrode voltage clamp)", "assay_type": "cell-based, human", "settings": "ExTxA 1 µM", "experimental": "Human NaV1.7 and TMEM233 genes cloned into pcDNA3.1 plasmid were linearized with NotI restriction enzyme and used as template for cRNA synthesis using T7 polymerase (mMessage mMachine Kit; Life Technologies). Stage V/VI oocytes were injected with 5–20 ng total RNA, then incubated at 17 °C for 1–3 days in 50% Leibovitz’s L-15 medium (Gibco), supplemented with 25 µg/mL gentamicin, 25 µg/mL streptomycin, and 2.5% fetal horse serum. Two-electrode voltage clamp (Axoclamp 900 A amplifier; Axon Instruments) were performed at room temperature in ND96 solution (in mM: 96 NaCl, 2 KCl, 1 MgCl2, 1.8 CaCl2, 5 HEPES; pH 7.4 with NaOH) with a ∼40 μL recording chamber. In experiments where ExTxA was added, solutions were supplemented with 0.05% fatty-acid free bovine serum albumin. Borosilicate glass microelectrodes had resistances of 0.2–0.8 MΩ when backfilled with 3 M KCl. Data were digitized at 20 kHz and filtered at 2 kHz using pCLAMP 11 software (Digidata 1550B; Axon Instruments).\nExTxA activity was assayed at 1 µM, analyzing the current from a 50 ms step to −10 mV every 10 s, from a holding volage of −80 mV. For all other voltage protocols, oocytes were held at −90 mV. Activation curves were obtained by measuring peak currents during steps from −100 mV to +60 mV in +10 mV increments applied every 10 s, with G/Gmax plot between −80 mV and +10 mV. […]"}, "HEK293-NaV1.7 cells": {"test_system": "HEK293-NaV1.7 cells", "assay_type": "cell-based, human", "settings": "ExTxA 1 µM; for ΔF/F in NaV1.7 HEK293: mean, n = 3", "experimental": "HEK293-NaV1.7 cells were transfected with TMEM233, CRELD1, LMAN2L, MMGT1, RNF121 and STT3B and co-transfected with five plasmids coding for the Glycosylphosphatidylinositol (GPI) complex (GPAA1, PIGK, PIGS, PIGU, PIGT) using Lipofectamine 2000. After 24 h, transfected cells were harvested and plated at a density of 10,000–15,000 cells per well on black-walled 384-well imaging plates. Plated cells were cultured for a further 24 h at 37 °C and 5% CO2. FLIPR (Fluorescent Imaging Plate Reader) Red membrane potential assay dye (Molecular Devices, California, USA) was diluted in physiological salt solution according to the manufacturer’s instructions (PSS, in mM: NaCl 140, glucose 11.5, HEPES 10, KCl 5.9, MgCl2 1.4, NaH2PO4 1.2, NaHCO3 5, CaCl2 1.8, pH 7.4). Growth medium was removed from the plate and replaced with 20 µL of FLIPR Red membrane potential assay dye per well and incubated in the dark at 37 °C for 60 min. […] Fluorescence responses to ExTxA were computed as the maximum change in fluorescence over baseline (ΔF/F0) using ScreenWorks (Molecular Devices, Version 5.1.2.94)."}, "NaV1.7/PRRT2": {"molecular_target": "NaV1.7/PRRT2 (Homo sapiens, UniProt Q15858+Q7Z6L0)", "sequence (Q7Z6L0 whole entry)": "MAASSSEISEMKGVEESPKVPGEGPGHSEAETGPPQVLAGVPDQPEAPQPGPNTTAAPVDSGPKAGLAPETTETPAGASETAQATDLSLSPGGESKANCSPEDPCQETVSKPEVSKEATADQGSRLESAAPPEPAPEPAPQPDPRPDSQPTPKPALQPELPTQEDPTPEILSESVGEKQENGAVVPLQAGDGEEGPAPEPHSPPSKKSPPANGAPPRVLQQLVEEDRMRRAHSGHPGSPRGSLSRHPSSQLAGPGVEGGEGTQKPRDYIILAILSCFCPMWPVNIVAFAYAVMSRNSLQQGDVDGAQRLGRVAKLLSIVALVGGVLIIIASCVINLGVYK", "sequence (Q07699 19-218, further chain)": "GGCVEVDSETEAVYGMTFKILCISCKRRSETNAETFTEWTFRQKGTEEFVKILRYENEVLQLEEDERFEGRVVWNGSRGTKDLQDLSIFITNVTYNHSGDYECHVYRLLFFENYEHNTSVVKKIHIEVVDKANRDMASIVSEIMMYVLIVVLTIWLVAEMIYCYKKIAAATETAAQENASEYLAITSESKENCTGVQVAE", "sequence (Q15858 whole entry)": "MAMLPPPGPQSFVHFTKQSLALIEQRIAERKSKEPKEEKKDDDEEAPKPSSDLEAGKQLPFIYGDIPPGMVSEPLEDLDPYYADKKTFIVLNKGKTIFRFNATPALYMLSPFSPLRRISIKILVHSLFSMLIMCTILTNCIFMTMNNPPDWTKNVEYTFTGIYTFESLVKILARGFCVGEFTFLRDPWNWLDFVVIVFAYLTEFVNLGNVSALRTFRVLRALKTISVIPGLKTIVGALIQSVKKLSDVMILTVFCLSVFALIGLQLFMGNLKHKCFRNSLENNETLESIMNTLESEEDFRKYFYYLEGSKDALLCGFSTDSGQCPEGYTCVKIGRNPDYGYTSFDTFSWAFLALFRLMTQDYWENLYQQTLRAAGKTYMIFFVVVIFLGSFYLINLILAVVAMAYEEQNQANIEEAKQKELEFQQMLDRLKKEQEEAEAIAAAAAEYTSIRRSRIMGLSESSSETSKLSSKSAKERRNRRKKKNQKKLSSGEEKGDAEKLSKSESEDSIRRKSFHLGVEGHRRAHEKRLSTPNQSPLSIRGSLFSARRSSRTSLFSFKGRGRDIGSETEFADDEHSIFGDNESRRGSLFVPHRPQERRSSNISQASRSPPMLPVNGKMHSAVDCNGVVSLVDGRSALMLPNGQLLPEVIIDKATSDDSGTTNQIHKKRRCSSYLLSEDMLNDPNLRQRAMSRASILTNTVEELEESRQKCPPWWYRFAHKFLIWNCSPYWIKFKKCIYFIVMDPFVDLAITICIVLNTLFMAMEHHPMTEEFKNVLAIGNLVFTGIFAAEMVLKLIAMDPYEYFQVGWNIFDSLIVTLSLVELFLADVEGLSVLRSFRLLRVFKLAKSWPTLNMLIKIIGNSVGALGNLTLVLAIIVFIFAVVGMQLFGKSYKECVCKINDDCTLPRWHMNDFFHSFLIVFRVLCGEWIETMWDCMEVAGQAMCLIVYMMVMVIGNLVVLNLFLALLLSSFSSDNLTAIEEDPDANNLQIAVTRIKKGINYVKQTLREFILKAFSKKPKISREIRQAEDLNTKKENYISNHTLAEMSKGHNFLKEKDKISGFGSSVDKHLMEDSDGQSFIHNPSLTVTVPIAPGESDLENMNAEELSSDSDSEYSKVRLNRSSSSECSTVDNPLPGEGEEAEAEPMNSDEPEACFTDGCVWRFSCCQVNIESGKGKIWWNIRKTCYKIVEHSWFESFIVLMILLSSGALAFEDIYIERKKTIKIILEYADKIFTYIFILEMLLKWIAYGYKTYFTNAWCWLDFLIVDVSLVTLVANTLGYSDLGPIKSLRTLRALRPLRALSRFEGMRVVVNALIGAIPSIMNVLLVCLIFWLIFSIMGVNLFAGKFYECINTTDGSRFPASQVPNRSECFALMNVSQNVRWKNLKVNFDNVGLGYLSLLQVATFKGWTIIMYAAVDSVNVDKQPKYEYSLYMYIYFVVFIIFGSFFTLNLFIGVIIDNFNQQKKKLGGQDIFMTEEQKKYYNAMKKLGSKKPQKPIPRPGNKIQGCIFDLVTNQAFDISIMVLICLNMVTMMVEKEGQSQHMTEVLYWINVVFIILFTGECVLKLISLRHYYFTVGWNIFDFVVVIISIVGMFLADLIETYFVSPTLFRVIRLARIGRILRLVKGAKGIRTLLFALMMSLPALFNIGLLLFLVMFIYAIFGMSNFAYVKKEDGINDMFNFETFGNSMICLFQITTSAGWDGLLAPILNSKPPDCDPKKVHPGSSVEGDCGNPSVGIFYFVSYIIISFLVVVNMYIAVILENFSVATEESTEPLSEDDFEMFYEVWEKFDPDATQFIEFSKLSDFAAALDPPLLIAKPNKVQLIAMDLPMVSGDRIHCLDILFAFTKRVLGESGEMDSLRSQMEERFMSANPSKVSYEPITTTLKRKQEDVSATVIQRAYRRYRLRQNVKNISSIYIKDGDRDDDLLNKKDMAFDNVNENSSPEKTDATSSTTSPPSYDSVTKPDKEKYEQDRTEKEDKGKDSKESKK", "assay_type": "cell-based"}},
  "note": "Values joined by “and” are separate entries in the source; they are usually repeats but may differ in a detail not shown here. Equal values may be shown once. Read-outs that look alike come from different tables or passages of the source. Positions of bridges follow the written chain, without caps; N, C: chain ends. Residues, ends and D or L forms follow the SMILES beside them.",
  "data": [
    {"molecule": "CC[C@H](C)[C@@H]1NC(=O)[C@H](CCCNC(=N)N)NC(=O)[C@H](Cc2ccccc2)NC(=O)[C@H](CC(C)C)NC(=O)[C@H](CO)NC(=O)[C@@H]2CSSC[C@@H]3NC(=O)[C@H]([C@@H](C)O)NC(=O)[C@H](CSSC[C@H](NC(=O)[C@H](CCCNC(=N)N)NC(=O)[C@@H]4CCCN4C(=O)[C@@H](N)CC(C)C)C(=O)N[C@@H](CC(=O)O)C(=O)N[C@@H](CO)C(=O)N4CCC[C@H]4C(=O)N[C@@H](Cc4ccccc4)C(=O)N2)NC(=O)[C@H](CCCCN)NC(=O)[C@H](CC(=O)O)NC(=O)CNC(=O)[C@H](CSSC[C@@H](C(=O)N[C@H](C(=O)N2CCC[C@H]2C(=O)N[C@@H](CC(=O)O)C(=O)N[C@H](C(=O)O)C(C)C)C(C)C)NC(=O)[C@H](CC(C)C)NC(=O)CNC(=O)[C@H](Cc2ccccc2)NC(=O)[C@H]([C@@H](C)CC)NC(=O)[C@@H]2CCCN2C(=O)[C@H](CC(C)C)NC(=O)[C@@H]2CCCN2C(=O)[C@H](C(C)C)NC3=O)NC(=O)[C@H](CC(C)C)NC(=O)CNC1=O", "note": "[ExTxA, excelsatoxin A] (H-LPRCDSPFCSLFRIGLCGDKCTCVPLPIFGLCVPDV-OH; disulfide 4-21, 9-23, 17-32)", "values": [
      {"measurement": "DRG NaV1.9 Δ persistent current (I90 ms/Ipeak)", "setting": "NaV1.9", "value": "-0.057 ± 0.028"},
      {"measurement": "persistent current (I40 ms/Ipeak)", "setting": "hNaV1.1", "value": "0.000881 and 0.001374 and 0.002237 and -0.03938 and -0.00046 and -0.00216 and -0.00201 and 0.01125 and 0.00618 and -0.00021 and -0.01358"},
      {"measurement": "Xenopus oocyte persistent current (I40 ms/Ipeak)", "setting": "hNaV1.7; hNaV1.7 alone, mean ± SEM, n = 6", "value": "0.081 ± 0.012"},
      {"measurement": "persistent current (I40 ms/Ipeak)", "setting": "hNaV1.7; individual oocytes", "value": "0.01056 and 0.002122 and 0.005805 and 0.01324 and 0.01132 and 0.02838 and 0.05496 and 0.01837 and -0.00648 and -0.01247 and 0.02865"},
      {"measurement": "ΔF/F in NaV1.7 HEK293", "setting": "HEK293-NaV1.7 cells; Control (untransfected NaV1.7)", "value": "0.016 ± 0.013 and 0.01598"},
      {"measurement": "DF/F", "setting": "HEK293-NaV1.7 cells; GPAA1+PIG K, S, T, U, replicate 1", "value": -0.0084},
      {"measurement": "DF/F", "setting": "HEK293-NaV1.7 cells; GPAA1+PIG K, S, T, U, replicate 2", "value": -0.00023},
      {"measurement": "DF/F", "setting": "HEK293-NaV1.7 cells; GPAA1+PIG K, S, T, U, replicate 3", "value": -0.01147},
      {"measurement": "ΔF/F in NaV1.7 HEK293", "setting": "HEK293-NaV1.7 cells; Lman2L", "value": "0.014 ± 0.0048 and 0.01413"},
      {"measurement": "DF/F", "setting": "HEK293-NaV1.7 cells; Lman2L, replicate 1", "value": 0.02361},
      {"measurement": "DF/F", "setting": "HEK293-NaV1.7 cells; Lman2L, replicate 2", "value": 0.01087},
      {"measurement": "DF/F", "setting": "HEK293-NaV1.7 cells; Lman2L, replicate 3", "value": 0.007914},
      {"measurement": "DF/F", "setting": "HEK293-NaV1.7 cells; Mmgt1, replicate 1", "value": -0.00761},
      {"measurement": "DF/F", "setting": "HEK293-NaV1.7 cells; Mmgt1, replicate 2", "value": -0.00711},
      {"measurement": "DF/F", "setting": "HEK293-NaV1.7 cells; Mmgt1, replicate 3", "value": -0.00296},
      {"measurement": "DF/F", "setting": "HEK293-NaV1.7 cells; RNF121, replicate 1", "value": -0.01721},
      {"measurement": "DF/F", "setting": "HEK293-NaV1.7 cells; RNF121, replicate 2", "value": -0.01119},
      {"measurement": "DF/F", "setting": "HEK293-NaV1.7 cells; RNF121, replicate 3", "value": 0.007423},
      {"measurement": "ΔF/F in NaV1.7 HEK293", "setting": "HEK293-NaV1.7 cells; Stt3b", "value": "0.013 ± 0.00098 and 0.01262"},
      {"measurement": "DF/F", "setting": "HEK293-NaV1.7 cells; Stt3b, replicate 1", "value": 0.01077},
      {"measurement": "DF/F", "setting": "HEK293-NaV1.7 cells; Stt3b, replicate 2", "value": 0.013},
      {"measurement": "DF/F", "setting": "HEK293-NaV1.7 cells; Stt3b, replicate 3", "value": 0.01408},
      {"measurement": "DF/F", "setting": "HEK293-NaV1.7 cells; Untransfected Nav1.7, replicate 1", "value": 0.03099},
      {"measurement": "DF/F", "setting": "HEK293-NaV1.7 cells; Untransfected Nav1.7, replicate 2", "value": -0.01092},
      {"measurement": "DF/F", "setting": "HEK293-NaV1.7 cells; Untransfected Nav1.7, replicate 3", "value": 0.02788},
      {"measurement": "LogEC50", "setting": "NaV1.7/PRRT2; Nav1.7/PRRT2, 95% CI -6.892 to -6.214, Fig 4g", "value": -6.331},
      {"measurement": "HillSlope", "setting": "NaV1.7/PRRT2; Nav1.7/PRRT2, Fig 4g", "value": 0.9384},
      {"measurement": "Top", "setting": "NaV1.7/PRRT2; Nav1.7/PRRT2, best-fit, constraint Top < 1, Fig 4g", "value": 0.7711},
      {"measurement": "ExTxA-induced currents with PRRT2", "setting": "NaV1.7/PRRT2; co-expression with NaV1.7", "value": "resulted in ExTxA-induced persistent currents"}
    ]}
  ]
}
